Legend:
CK1ε = CK1ε (Homo sapiens (Human), UniProt P49674); test: CK1ε kinase assay (Caliper LABCHIP electrophoretic separation of fluoresceinated peptide substrate and product); format: biochemical; conditions: 200 pM enzyme, 50 μM ATP, 22 hours at room temperature
Protocol: (§1) CK1ε and CK1δ Kinase Assays
(§2) The kinase assay was performed in V-bottom 384-well plates. […] The reaction was incubated at room temperature for 22 hours and terminated by adding 45 μl of 35 mM EDTA to each sample. The reaction mixture was analyzed on the Caliper LABCHIP®3000 (Caliper, Hopkinton, Mass.) by electrophoretic separation of the unphosphorylated substrate and phosphorylated product. […] Compounds were dissolved at 10 mM in dimethylsulfoxide (DMSO) and evaluated at eleven concentrations. IC50 values were derived by non-linear regression analysis.

CK1δ = CK1δ (Homo sapiens (Human), UniProt P48730); test: CK1δ kinase assay (Caliper LABCHIP electrophoretic separation of fluoresceinated peptide substrate and product); format: biochemical; conditions: 200 pM enzyme, 50 μM ATP, 22 hours at room temperature
Protocol: as §1, §2

Chain of CK1ε (P49674 whole entry): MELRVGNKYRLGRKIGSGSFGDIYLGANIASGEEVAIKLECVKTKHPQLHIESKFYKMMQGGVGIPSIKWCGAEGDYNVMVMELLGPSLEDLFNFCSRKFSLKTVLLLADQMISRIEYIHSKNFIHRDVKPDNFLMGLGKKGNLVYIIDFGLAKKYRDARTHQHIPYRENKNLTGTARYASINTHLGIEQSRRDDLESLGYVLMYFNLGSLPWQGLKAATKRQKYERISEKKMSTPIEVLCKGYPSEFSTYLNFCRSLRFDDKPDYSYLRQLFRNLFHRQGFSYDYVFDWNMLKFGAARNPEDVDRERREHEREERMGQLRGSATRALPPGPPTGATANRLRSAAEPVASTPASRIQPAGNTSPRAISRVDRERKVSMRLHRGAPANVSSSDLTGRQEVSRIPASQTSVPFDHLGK
Chain of CK1δ (P48730 whole entry): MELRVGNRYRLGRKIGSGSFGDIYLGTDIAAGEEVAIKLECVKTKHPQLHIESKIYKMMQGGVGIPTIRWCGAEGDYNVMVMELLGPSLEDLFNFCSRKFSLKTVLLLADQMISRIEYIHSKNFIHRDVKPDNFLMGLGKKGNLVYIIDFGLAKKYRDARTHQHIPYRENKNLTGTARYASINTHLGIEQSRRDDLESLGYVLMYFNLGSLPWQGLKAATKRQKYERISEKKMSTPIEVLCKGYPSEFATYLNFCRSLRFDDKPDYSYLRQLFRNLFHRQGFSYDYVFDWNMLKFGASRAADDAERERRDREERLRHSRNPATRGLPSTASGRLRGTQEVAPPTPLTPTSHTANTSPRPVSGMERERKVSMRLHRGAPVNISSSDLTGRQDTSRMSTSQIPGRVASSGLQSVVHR

Structure (SMILES): Cc1nnsc1C(=O)Nc1cn2nc(-c3c(-c4ccc(F)cc4)nc4ccccn34)ccc2n1 [Compound 178, N-(6-(2-(4-fluorophenyl)imidazo[1,2-a]pyridin-3-yl)imidazo[1,2-b]pyridazin-2-yl)-4-methyl-1,2,3-thiadiazole-5-carboxamide]
- IC50 (CK1ε): 1520 nM
- IC50 (CK1δ): 200 nM

Structure (SMILES): CC1(C)CC1C(=O)N1CCC(n2cnc(-c3ccc(F)cc3)c2-c2ccc3nc(NC(=O)c4ccnc(F)c4)cn3n2)CC1 (stereo not shown) [Compound 66, N-(6-(1-(1-(2,2-dimethylcyclopropanecarbonyl)piperidin-4-yl)-4-(4-fluorophenyl)-1H-imidazol-5-yl)imidazo[1,2-6]pyridazin-2-yl)-2-fluoroisonicotinamide]
- IC50 (CK1ε): 7.2 nM
- IC50 (CK1δ): 0.928 nM

Structure (SMILES): Cc1nc(-c2ccc(F)cc2)c(-c2ccc3nc(NC(=O)c4sc(-c5ccncc5)nc4C(F)(F)F)cn3n2)n1C [Compound 405, N-(6-(4-(4-Fluorophenyl)-1,2-dimethyl-1H-imidazol-5-yl)imidazo[1,2-b]pyridazin-2-yl)-2-(pyridin-4-yl)-4-(trifluoromethyl)thiazole-5-carboxamide]
- IC50 (CK1ε): 4.21 nM
- IC50 (CK1δ): 1.04 nM

Structure (SMILES): Cc1nc(-c2cccnc2)sc1C(=O)Nc1cn2nc(-c3c(-c4ccc(F)cc4)ncn3C3CN(C(=O)CN)C3)ccc2n1 [Compound 156, N-(6-(1-(1-(2-aminoacetyl)azetidin-3-yl)-4-(4-fluorophenyl)-1H-imidazol-5-yl)imidazo[1,2-b]pyridazin-2-yl)-4-methyl-2-(pyridin-3-yl)thiazole-5-carboxamide]
- IC50 (CK1ε): 0.976 nM
- IC50 (CK1δ): 0.249 nM

Structure (SMILES): O=C(Nc1cn2nc(-c3c(-c4ccc(F)cc4)ncn3-c3cccnc3)ccc2n1)c1cc(F)nc(F)c1 [Compound 423, 2,6-Difluoro-N-(6-(4-(4-fluorophenyl)-1-(pyridin-3-yl)-1H-imidazol-5-yl)imidazo[1,2-b]pyridazin-2-yl)isonicotinamide]
- IC50 (CK1ε): 18 nM
- IC50 (CK1δ): 1.1 nM

Structure (SMILES): CCn1c(C)nc(-c2ccc(Cl)cc2)c1-c1ccc2nc(NC(=O)c3ccnc(F)c3)cn2n1 [Compound 292, N-(6-(4-(4-chlorophenyl)-1-ethyl-2-methyl-1H-imidazol-5-yl)imidazo[1,2-b]pyridazin-2-yl)-2-fluoroisonicotinamide]
- IC50 (CK1ε): 1.81 nM
- IC50 (CK1δ): 0.208 nM

Structure (SMILES): NC(=O)CN1CCC(n2cnc(-c3ccc(F)cc3)c2-c2ccc3nc(NC(=O)c4ccnc5ccccc45)cn3n2)CC1 [Compound 112, N-(6-(1-(1-(2-amino-2-oxoethyl)piperidin-4-yl)-4-(4-fluorophenyl)-1H-imidazol-5-yl)imidazo[1,2-b]pyridazin-2-yl)quinoline-4-carboxamide]
- IC50 (CK1ε): 0.886 nM
- IC50 (CK1δ): 0.494 nM

Structure (SMILES): O=C(Nc1cn2nc(-c3c(-c4ccc(F)cc4)ncn3CCCn3ccnc3)ccc2n1)c1ccnc(F)c1 [Compound 263, 2-fluoro-N-(6-(4-(4-fluorophenyl)-1-(3-(1H-imidazol-1-yl)propyl)-1H-imidazol-5-yl)imidazo[1,2-b]pyridazin-2-yl)isonicotinamide]
- IC50 (CK1ε): 5.4 nM
- IC50 (CK1δ): 0.436 nM

Structure (SMILES): O=C(Nc1cn2nc(-c3c(-c4ccc(F)cc4)ncn3C3CCN(C(=O)OCC(F)(F)F)CC3)ccc2n1)c1ccnc(F)c1 [Compound 85, 2,2,2-trifluoroethyl 4-(5-(2-(2-fluoroisonicotinamido)imidazo[1,2-b]pyridazin-6-yl)-4-(4-fluorophenyl)-1H-imidazol-1-yl)piperidine-1-carboxylate]
- IC50 (CK1ε): 2.34 nM
- IC50 (CK1δ): 0.309 nM

Structure (SMILES): O=C(Nc1cn2nc(-c3c(-c4ccc(F)cc4)ncn3C3CNC3)ccc2n1)c1ccnc(F)c1 [Compound 148, N-(6-(1-(azetidin-3-yl)-4-(4-fluorophenyl)-1H-imidazol-5-yl)imidazo[1,2-b]pyridazin-2-yl)-2-fluoroisonicotinamide]
- IC50 (CK1ε): 9.87 nM
- IC50 (CK1δ): 0.608 nM

Structure (SMILES): O=C(Nc1cn2nc(-c3c(-c4ccc(F)cc4)ncn3C3CCN(C(=O)c4ccon4)CC3)ccc2n1)c1cncs1 [Compound 116, N-(6-(4-(4-fluorophenyl)-1-(1-(isoxazole-3-carbonyl)piperidin-4-yl)-1H-imidazol-5-yl)imidazo[1,2-b]pyridazin-2-yl)thiazole-5-carboxamide]
- IC50 (CK1ε): 0.372 nM
- IC50 (CK1δ): 0.173 nM

Structure (SMILES): O=C(Nc1cn2nc(-c3c(-c4ccc(F)cc4)ncn3CCN3CCCCC3=O)ccc2n1)c1ccnc(F)c1 [Compound 261, 2-fluoro-N-(6-(4-(4-fluorophenyl)-1-(2-(2-oxopiperidin-1-yl)ethyl)-1H-imidazol-5-yl)imidazo[1,2-b]pyridazin-2-yl)isonicotinamide]
- IC50 (CK1ε): 14.8 nM
- IC50 (CK1δ): 0.403 nM

Structure (SMILES): Cn1nccc1C(=O)Nc1cn2nc(-c3c(-c4ccc(F)cc4)nc4ccccn34)ccc2n1 [Compound 180, N-(6-(2-(4-fluorophenyl)imidazo[1,2-a]pyridin-3-yl)imidazo[1,2-b]pyridazin-2-yl)-1-methyl-1H-pyrazole-5-carboxamide]
- IC50 (CK1ε): 12.1 nM
- IC50 (CK1δ): 1.6 nM

Structure (SMILES): CNc1ccc2nc(-c3ccc(F)cc3)c(-c3ccc4nc(NC(=O)c5ccncc5)cn4n3)n2n1 [Compound 225, N-(2-(4-fluorophenyl)-6-(methyl-amino)-[3,6′-biimidazo[1,2-b]pyridazin]-2′-yl)isonicotinamide]
- IC50 (CK1ε): 10.4 nM
- IC50 (CK1δ): 2.82 nM

Structure (SMILES): Cn1ccc(-c2cccc(C(=O)Nc3cn4nc(-c5c(-c6ccc(F)cc6)nc6ccccn56)ccc4n3)c2)n1 [Compound 171, N-(6-(2-(4-fluorophenyl)imidazo[1,2-a]pyridin-3-yl)imidazo[1,2-b]pyridazin-2-yl)-3-(1-methyl-1H-pyrazol-3-yl)benzamide]
- IC50 (CK1ε): 7.68 nM
- IC50 (CK1δ): 1.98 nM

Structure (SMILES): O=C(Nc1cn2nc(-c3c(-c4ccc(F)cc4)nc4ccccn34)ccc2n1)c1nc2ccccc2s1 [Compound 184, N-(6-(2-(4-fluorophenyl)imidazo[1,2-a]pyridin-3-yl)imidazo[1,2-b]pyridazin-2-yl)-1,3-benzothiazole-2-carboxamide]
- IC50 (CK1ε): 77.2 nM
- IC50 (CK1δ): 7.53 nM

Structure (SMILES): Cc1nc(-c2ccc(F)cc2)c(-c2ccc3nc(NC(=O)c4ccnc(F)c4)cn3n2)n1C1CCN(CCC#N)CC1 [Compound 144, N-(6-(1-(1-(2-cyanoethyl)piperidin-4-yl)-4-(4-fluorophenyl)-2-methyl-1H-imidazol-5-yl)imidazo[1,2-b]pyridazin-2-yl)-2-fluoroisonicotinamide]
- IC50 (CK1ε): 1.55 nM
- IC50 (CK1δ): 0.254 nM

Structure (SMILES): O=C(Nc1cn2nc(-c3c(-c4ccc(F)cc4)ncn3C3CCN(C(=O)CCC(F)(F)F)CC3)ccc2n1)c1ccnc(F)c1 [Compound 59, 2-fluoro-N-(6-(4-(4-fluorophenyl)-1-(1-(4,4,4-trifluorobutanoyl)piperidin-4-yl)-1H-imidazol-5-yl)imidazo[1,2-b]pyridazin-2-yl)isonicotinamide]
- IC50 (CK1ε): 1.97 nM
- IC50 (CK1δ): 0.579 nM

Structure (SMILES): CC(C)(C(=O)N1CCn2c(nc(-c3ccc(F)cc3)c2-c2ccc3nc(NC(=O)c4ccnc(F)c4)cn3n2)C1)C(F)(F)F [Compound 465, 2-Fluoro-N-(6-(2-(4-fluorophenyl)-7-(3,3,3-trifluoro-2,2-dimethylpropanoyl)-5,6,7,8-tetrahydroimidazo[1,2-a]pyrazin-3-yl)imidazo[1,2-b]pyridazin-2-yl)isonicotinamide]
- IC50 (CK1ε): 5 nM
- IC50 (CK1δ): 0.6 nM

Structure (SMILES): Cc1nc(-c2ccc(F)cc2)c(-c2ccc3nc(NC(=O)c4cnoc4)cn3n2)n1C [Compound 378, N-(6-(4-(4-fluorophenyl)-1,2-dimethyl-1H-imidazol-5-yl)imidazo[1,2-b]pyridazin-2-yl)-4-isoxazolecarboxamide]
- IC50 (CK1ε): 60 nM
- IC50 (CK1δ): 6.19 nM

Structure (SMILES): O=C(Nc1cn2nc(-c3c(-c4ccc(F)cc4)nc(C4CC4)n3C3CCN(CCN4CCOCC4)CC3)ccc2n1)c1ccnc(F)c1 [Compound 134]
- IC50 (CK1ε): 7.83 nM
- IC50 (CK1δ): 0.542 nM

Structure (SMILES): O=C(Nc1cn2nc(-c3c(-c4ccc(F)cc4)ncn3C3CCN(C(=O)OCc4ccon4)CC3)ccc2n1)c1ccnc(F)c1 [Compound 86, isoxazol-3-ylmethyl 4-(5-(2-(2-fluoroisonicotinamido)imidazo[1,2-b]pyridazin-6-yl)-4-(4-fluorophenyl)-1H-imidazol-1-yl)piperidine-1-carboxylate]
- IC50 (CK1ε): 0.851 nM
- IC50 (CK1δ): 0.286 nM

Structure (SMILES): O=C(Nc1cn2nc(-c3c(-c4ccc(F)cc4)ncn3C3CCN(C(=O)c4cc(C5CC5)on4)CC3)ccc2n1)c1ccnc(F)c1 [Compound 45, N-(6-(1-(1-(5-cyclopropylisoxazole-3-carbonyl)piperidin-4-yl)-4-(4-fluorophenyl)-1H-imidazol-5-yl)imidazo[1,2-b]pyridazin-2-yl)-2-fluoroisonicotinamide]
- IC50 (CK1ε): 16.4 nM
- IC50 (CK1δ): 1.98 nM

Structure (SMILES): Cc1nc(-c2ccc(F)cc2)c(-c2ccc3nc(NC(=O)c4c[nH]c5ccncc45)cn3n2)n1C [Compound 334, N-(6-(4-(4-fluorophenyl)-1,2-dimethyl-1H-imidazol-5-yl)imidazo[1,2-b]pyridazin-2-yl)-1H-pyrrolo[3,2-c] pyridine-3-carboxamide]
- IC50 (CK1ε): 0.966 nM
- IC50 (CK1δ): 0.824 nM

Structure (SMILES): O=C(Nc1cn2nc(-c3c(-c4ccc(F)cc4)ncn3CCN3CCOCC3)ccc2n1)c1cc(F)nc(F)c1 [Compound 162, 2,6-difluoro-N-(6-(4-(4-fluorophenyl)-1-(2-morpholinoethyl)-1H-imidazol-5-yl)imidazo[1,2-b]pyridazin-2-yl)isonicotinamide]
- IC50 (CK1ε): 2.42 nM
- IC50 (CK1δ): 0.311 nM

Structure (SMILES): Cc1nc(-c2ccc(Cl)cc2)c(-c2ccc3nc(NC(=O)c4ccnc(F)c4)cn3n2)n1C [Compound 296, N-(6-(4-(4-chlorophenyl)-1,2-dimethyl-1H-imidazol-5-yl)imidazo[1,2-b]pyridazin-2-yl)-2-fluoroisonicotinamide]
- IC50 (CK1ε): 10.2 nM
- IC50 (CK1δ): 0.519 nM
